Here are results for 18 compounds from patent publication US20210355104A1, “ADENOSINE RECEPTOR BINDING COMPOUNDS” (Nikang Therapeuticsm Inc., priority 2018, published 2021).

Several values for one entry are separate records, joined by “and”; a condition that tells them apart may be missing. Identical values can stand only once. A value given as a limit tells only on which side of the number the result lay.

The target of the first assay is Adenosine A2A receptor (Homo sapiens, UniProt P29274). Description: cAMP assay in 293A cells stably expressing the adenosine A2A receptor (CGS21680 stimulation, HTRF). It is filed as cell-based. The arrangement: expressed in transfected cells; host or cells: 293A cells (Invitrogen, Cat# R705-07) infected with A2A-expressing lentivirus (custom packaged by Biosettia), puromycin selected. To be noted: 293A cells stably expressing A2A receptor; 0.1% BSA; 1 uM CGS21680 stimulation; replicate values separated by /; read-out: cAMP (nM) 0.1% BSA, 1 uM CGS. A general note: Changes in cAMP serve as a functional read-out for many G protein-coupled receptors.
Sequence of Adenosine A2A receptor (P29274 whole entry): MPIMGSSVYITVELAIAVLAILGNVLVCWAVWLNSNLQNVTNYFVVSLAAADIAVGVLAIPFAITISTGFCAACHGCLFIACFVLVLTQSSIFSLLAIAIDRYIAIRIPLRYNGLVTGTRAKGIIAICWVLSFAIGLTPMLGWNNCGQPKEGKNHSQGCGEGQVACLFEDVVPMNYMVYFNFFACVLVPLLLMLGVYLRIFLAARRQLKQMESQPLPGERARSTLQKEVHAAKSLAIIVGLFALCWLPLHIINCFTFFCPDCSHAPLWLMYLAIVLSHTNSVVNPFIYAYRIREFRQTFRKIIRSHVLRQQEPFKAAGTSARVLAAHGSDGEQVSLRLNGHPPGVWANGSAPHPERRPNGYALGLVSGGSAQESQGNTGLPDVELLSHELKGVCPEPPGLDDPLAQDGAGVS
Consider `Cc1cc(-c2c(OCc3cc(N4CCOCC4)cc(C(C)(C)O)n3)nc(N)nc2-c2ccc(F)cc2)cc(C(F)F)n1` [Example 424, 2-(6-(((2-amino-5-(2-(difluoromethyl)-6-methylpyridin-4-yl)-6-(4-fluorophenyl)pyrimidin-4-yl)oxy)methyl)-4-morpholinopyridin-2-yl)propan-2-ol], for which the IC50 is 5930 nM and 9830 nM. Consider `Cc1cc(-c2c(OCc3nc(C(C)(C)O)cn3C)nc(N)nc2-c2ccc(F)cc2)cc(C(F)F)n1` [Example 401, 2-(2-(((2-amino-5-(2-(difluoromethyl)-6-methylpyridin-4-yl)-6-(4-fluorophenyl)pyrimidin-4-yl)oxy)methyl)-1-methyl-1H-imidazol-4-yl)propan-2-ol], for which the IC50 is 318 nM and 246 nM and 259 nM. Still for that read-out and setting: the figure for `Cc1cc(-c2c(OCc3cc(-c4nnnn4C)cc(C(C)(C)O)n3)nc(N)nc2-c2ccc(F)cc2)cc(C(F)F)n1` [Example 443, 2-(6-(((2-amino-5-(2-(difluoromethyl)-6-methylpyridin-4-yl)-6-(4-fluorophenyl)pyrimidin-4-yl)oxy)methyl)-4-(1-methyl-1H-tetrazol-5-yl)pyridin-2-yl)propan-2-ol] is 23200 nM. Same read-out and setting: the same measure for `Cc1cc(-c2c(OCc3cccc(C(C)(C)c4nn[nH]n4)n3)nc(N)nc2-c2ccc(F)cc2)cc(C(F)F)n1` [Example 400, 4-((6-(2-(2H-tetrazol-5-yl)propan-2-yl)pyridin-2-yl)methoxy)-5-(2-(difluoromethyl)-6-methylpyridin-4-yl)-6-(4-fluorophenyl)pyrimidin-2-amine]: 1000 nM and 1470 nM and 1440 nM.

Still in this assay, the particulars now being: 293A-A2AR cells, 0.1% BSA, 8 nM CGS; values separated by / are repeat determinations; read-out: cAMP (nM) 0.1% BSA, 8 nM CGS.
For the compound `Cc1cc(-c2c(OCCN(C)c3ncccn3)nc(N)nc2-c2ccc(F)cc2)cc(C(F)F)n1` [Example 145, 5-(2-(difluoromethyl)-6-methylpyridin-4-yl)-4-(4-fluorophenyl)-6-(2-(methyl(pyrimidin-2-yl)amino)ethoxy)pyrimidin-2-amine], the IC50 is 0.9 nM and 1.2 nM.

Staying with this assay, now noted: 293A-A2AR cells, 0.1% BSA, 1 uM CGS; read-out: cAMP (nM) 0.1% BSA, 1 uM CGS.
For `CCN1C(=O)OCC1COc1nc(N)nc(-c2ccc(F)cc2)c1-c1cc(C)nc(C(F)F)c1` (stereo not shown) [Example 235, 4-(((2-amino-5-(2-(difluoromethyl)-6-methylpyridin-4-yl)-6-(4-fluorophenyl)pyrimidin-4-yl)oxy)methyl)-3-ethyloxazolidin-2-one], the IC50 came to 3710 nM.

On to `Cc1cc(-c2c(OCc3nc4ccccc4o3)nc(N)nc2-c2ccc(F)cc2)cc(C(F)F)n1` [Example 342, 4-(benzo[d]oxazol-2-ylmethoxy)-5-(2-(difluoromethyl)-6-methylpyridin-4-yl)-6-(4-fluorophenyl)pyrimidin-2-amine], for which the IC50 turned out to be 419 nM. For `CCn1c(COc2nc(N)nc(-c3ccc(F)cc3)c2-c2cc(C)nc(C(F)F)c2)nc2c(C(=O)O)cccc21` [Example 345, 2-(((2-amino-5-(2-(difluoromethyl)-6-methylpyridin-4-yl)-6-(4-fluorophenyl)pyrimidin-4-yl)oxy)methyl)-1-ethyl-1H-benzo[d]imidazole-4-carboxylic acid], the IC50 was found to be 10300 nM. Still for that read-out and setting: the figure for `Cc1cc(-c2c(OCc3nc4ccc(C(C)(C)C(=O)O)cc4n3C)nc(N)nc2-c2ccc(F)cc2)cc(C(F)F)n1` [Example 368, 2-(2-(((2-amino-5-(2-(difluoromethyl)-6-methylpyridin-4-yl)-6-(4-fluorophenyl)pyrimidin-4-yl)oxy)methyl)-1-methyl-1H-benzo[d]imidazol-6-yl)-2-methylpropanoic acid] is more than 25000 nM; for `Cc1cc(-c2c(OCc3ccnn3CC3CC3)nc(N)nc2-c2ccc(F)cc2)cc(C(F)F)n1` [Example 229, 4-((1-(cyclopropylmethyl)-1H-pyrazol-5-yl)methoxy)-5-(2-(difluoromethyl)-6-methylpyridin-4-yl)-6-(4-fluorophenyl)pyrimidin-2-amine] it is 107 nM. On to `Cc1cc(-c2c(OCc3cccc(C(O)CO)n3)nc(N)nc2-c2ccc(F)cc2)cc(C(F)F)n1` (stereo not shown) [Example 303, 1-(6-(((2-amino-5-(2-(difluoromethyl)-6-methylpyridin-4-yl)-6-(4-fluorophenyl)pyrimidin-4-yl)oxy)methyl)pyridin-2-yl)ethane-1,2-diol], for which the IC50 stood at 965 nM. The same measure, in the same setting: the figure for `Cc1cc(-c2c(OCc3cccc(N4CCCC4)n3)nc(N)nc2-c2ccc(F)cc2)cc(C(F)F)n1` [Example 283, 5-(2-(difluoromethyl)-6-methylpyridin-4-yl)-4-(4-fluorophenyl)-6-((6-(pyrrolidin-1-yl)pyridin-2-yl)methoxy)pyrimidin-2-amine] is 1170 nM. On the same count and under the same terms, the same measure for `Cc1cc(-c2c(OCCOC(C)(C)C(=O)O)nc(N)nc2-c2ccc(F)cc2)cc(C(F)F)n1` [Example 226]: more than 2500 nM; for `Cc1cc(-c2c(OCc3nccn3CC(=O)O)nc(N)nc2-c2ccc(F)cc2)cc(C(F)F)n1` [Example 249, 2-(2-(((2-amino-5-(2-(difluoromethyl)-6-methylpyridin-4-yl)-6-(4-fluorophenyl)pyrimidin-4-yl)oxy)methyl)-1H-imidazol-1-yl)acetic acid]: 7240 nM.

On to `Cc1cc(-c2c(OCc3cccc(C(C)(O)C(=O)O)n3)nc(N)nc2-c2ccc(F)cc2)cc(C(F)F)n1` (stereo not shown) [Example 394, 2-(6-(((2-amino-5-(2-(difluoromethyl)-6-methylpyridin-4-yl)-6-(4-fluorophenyl)pyrimidin-4-yl)oxy)methyl)pyridin-2-yl)-2-hydroxypropanoic acid], for which the IC50 is 865 nM and 496 nM. As for `CCc1nn(C[C@H](O)CO)nc1COc1nc(N)nc(-c2ccc(F)cc2)c1-c1cc(C)nc(C(F)F)c1` [Example 316, (S)-3-(4-(((2-amino-5-(2-(difluoromethyl)-6-methylpyridin-4-yl)-6-(4-fluorophenyl)pyrimidin-4-yl)oxy)methyl)-5-ethyl-2H-1,2,3-triazol-2-yl)propane-1,2-diol], the IC50 was 1080 nM. As to `Cc1cc(-c2c(OCc3ccncc3)nc(N)nc2-c2ccc(F)cc2)cc(C(F)F)n1` [Example 286, 5-(2-(difluoromethyl)-6-methylpyridin-4-yl)-4-(4-fluorophenyl)-6-(pyridin-4-ylmethoxy)pyrimidin-2-amine], the IC50 came out at 1800 nM. With `CCc1nn(CC(C)(C)C#N)nc1COc1nc(N)nc(-c2ccc(F)cc2)c1-c1cc(C)nc(C(F)F)c1` [Example 324, 3-(4-(((2-amino-5-(2-(difluoromethyl)-6-methylpyridin-4-yl)-6-(4-fluorophenyl)pyrimidin-4-yl)oxy)methyl)-5-ethyl-2H-1,2,3-triazol-2-yl)-2,2-dimethylpropanenitrile], the IC50 is 2080 nM.

The assay is the same for the next values; noted with them: 293A-A2AR cells, 0.1% BSA, 1 uM CGS; values separated by / are repeat determinations; read-out: cAMP (nM) 0.1% BSA, 1 uM CGS.
`Cc1cc(-c2c(OCCN(C)c3ncccn3)nc(N)nc2-c2ccc(F)cc2)cc(C(F)F)n1` [Example 145, 5-(2-(difluoromethyl)-6-methylpyridin-4-yl)-4-(4-fluorophenyl)-6-(2-(methyl(pyrimidin-2-yl)amino)ethoxy)pyrimidin-2-amine]: the IC50 came out at 123 nM.
